{"source": "the Kinase Knowledgebase extract (Sharma et al. 2016)", "key": {"PIK3CG (human) [1]": {"target": "PIK3CG (human) (UniProt P48736)", "sequence (P48736 whole entry, looked up)": "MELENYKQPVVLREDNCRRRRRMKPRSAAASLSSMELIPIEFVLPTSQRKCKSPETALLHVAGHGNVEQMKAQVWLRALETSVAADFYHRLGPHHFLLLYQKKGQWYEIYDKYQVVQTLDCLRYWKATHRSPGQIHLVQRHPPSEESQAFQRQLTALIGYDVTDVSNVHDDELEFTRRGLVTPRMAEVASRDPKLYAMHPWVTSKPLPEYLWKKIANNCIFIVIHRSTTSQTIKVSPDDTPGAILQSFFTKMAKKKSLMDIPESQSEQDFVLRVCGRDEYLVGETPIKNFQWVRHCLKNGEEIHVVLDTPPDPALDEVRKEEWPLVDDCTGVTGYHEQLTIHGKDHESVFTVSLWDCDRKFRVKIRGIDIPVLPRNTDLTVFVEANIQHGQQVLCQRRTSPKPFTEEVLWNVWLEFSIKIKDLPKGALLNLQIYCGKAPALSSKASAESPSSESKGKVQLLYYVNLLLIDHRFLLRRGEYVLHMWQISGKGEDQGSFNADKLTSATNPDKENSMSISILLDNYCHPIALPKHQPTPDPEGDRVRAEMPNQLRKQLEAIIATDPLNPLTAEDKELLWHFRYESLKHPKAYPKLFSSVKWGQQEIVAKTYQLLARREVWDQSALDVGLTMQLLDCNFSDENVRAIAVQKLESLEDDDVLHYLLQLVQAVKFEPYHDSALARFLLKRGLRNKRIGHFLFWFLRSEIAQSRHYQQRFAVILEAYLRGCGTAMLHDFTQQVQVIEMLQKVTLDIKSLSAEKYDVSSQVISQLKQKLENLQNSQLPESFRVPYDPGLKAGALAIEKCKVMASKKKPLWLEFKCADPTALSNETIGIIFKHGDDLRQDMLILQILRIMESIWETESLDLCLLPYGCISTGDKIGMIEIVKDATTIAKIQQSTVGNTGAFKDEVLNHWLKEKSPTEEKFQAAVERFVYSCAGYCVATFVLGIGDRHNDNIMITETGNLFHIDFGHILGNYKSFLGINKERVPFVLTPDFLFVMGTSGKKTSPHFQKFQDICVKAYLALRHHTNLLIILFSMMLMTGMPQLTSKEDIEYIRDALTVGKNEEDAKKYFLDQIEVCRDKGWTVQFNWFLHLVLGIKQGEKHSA", "experiment": "Enzyme Assay"}, "PIK3CA (human)": {"target": "PIK3CA (human) (UniProt P42336)", "sequence (P42336 whole entry, looked up)": "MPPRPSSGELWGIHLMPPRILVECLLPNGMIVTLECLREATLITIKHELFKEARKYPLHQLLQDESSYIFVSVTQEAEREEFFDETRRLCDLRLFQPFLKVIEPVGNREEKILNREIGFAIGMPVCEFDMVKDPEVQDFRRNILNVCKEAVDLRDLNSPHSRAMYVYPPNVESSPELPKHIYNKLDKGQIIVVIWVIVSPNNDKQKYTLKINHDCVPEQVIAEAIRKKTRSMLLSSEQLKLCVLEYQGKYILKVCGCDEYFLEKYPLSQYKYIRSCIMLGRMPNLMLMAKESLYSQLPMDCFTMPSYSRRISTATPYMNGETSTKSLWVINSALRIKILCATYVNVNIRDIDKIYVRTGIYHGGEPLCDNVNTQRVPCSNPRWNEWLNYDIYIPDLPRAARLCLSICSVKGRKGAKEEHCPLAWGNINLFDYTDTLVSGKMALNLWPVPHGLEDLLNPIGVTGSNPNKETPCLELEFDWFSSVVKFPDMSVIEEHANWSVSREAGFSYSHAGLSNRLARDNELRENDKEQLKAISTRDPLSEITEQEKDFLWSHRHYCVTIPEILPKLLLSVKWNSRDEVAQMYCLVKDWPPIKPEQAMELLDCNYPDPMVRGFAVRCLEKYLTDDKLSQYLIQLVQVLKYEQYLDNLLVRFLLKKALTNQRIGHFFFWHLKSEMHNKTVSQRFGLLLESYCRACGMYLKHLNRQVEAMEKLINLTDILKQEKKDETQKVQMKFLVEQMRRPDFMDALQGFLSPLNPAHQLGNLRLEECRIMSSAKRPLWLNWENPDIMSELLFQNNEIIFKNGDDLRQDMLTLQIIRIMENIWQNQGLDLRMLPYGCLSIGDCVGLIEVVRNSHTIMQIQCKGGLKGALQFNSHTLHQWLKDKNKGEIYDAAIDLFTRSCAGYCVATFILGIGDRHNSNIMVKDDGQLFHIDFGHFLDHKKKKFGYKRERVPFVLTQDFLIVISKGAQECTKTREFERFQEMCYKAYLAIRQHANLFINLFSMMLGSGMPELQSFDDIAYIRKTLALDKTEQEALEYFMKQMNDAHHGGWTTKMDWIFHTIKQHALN", "experiment": "Enzyme Assay"}, "PIK3CD (Human)": {"target": "PIK3CD (Human) (UniProt O00329)", "sequence (O00329 whole entry, looked up)": "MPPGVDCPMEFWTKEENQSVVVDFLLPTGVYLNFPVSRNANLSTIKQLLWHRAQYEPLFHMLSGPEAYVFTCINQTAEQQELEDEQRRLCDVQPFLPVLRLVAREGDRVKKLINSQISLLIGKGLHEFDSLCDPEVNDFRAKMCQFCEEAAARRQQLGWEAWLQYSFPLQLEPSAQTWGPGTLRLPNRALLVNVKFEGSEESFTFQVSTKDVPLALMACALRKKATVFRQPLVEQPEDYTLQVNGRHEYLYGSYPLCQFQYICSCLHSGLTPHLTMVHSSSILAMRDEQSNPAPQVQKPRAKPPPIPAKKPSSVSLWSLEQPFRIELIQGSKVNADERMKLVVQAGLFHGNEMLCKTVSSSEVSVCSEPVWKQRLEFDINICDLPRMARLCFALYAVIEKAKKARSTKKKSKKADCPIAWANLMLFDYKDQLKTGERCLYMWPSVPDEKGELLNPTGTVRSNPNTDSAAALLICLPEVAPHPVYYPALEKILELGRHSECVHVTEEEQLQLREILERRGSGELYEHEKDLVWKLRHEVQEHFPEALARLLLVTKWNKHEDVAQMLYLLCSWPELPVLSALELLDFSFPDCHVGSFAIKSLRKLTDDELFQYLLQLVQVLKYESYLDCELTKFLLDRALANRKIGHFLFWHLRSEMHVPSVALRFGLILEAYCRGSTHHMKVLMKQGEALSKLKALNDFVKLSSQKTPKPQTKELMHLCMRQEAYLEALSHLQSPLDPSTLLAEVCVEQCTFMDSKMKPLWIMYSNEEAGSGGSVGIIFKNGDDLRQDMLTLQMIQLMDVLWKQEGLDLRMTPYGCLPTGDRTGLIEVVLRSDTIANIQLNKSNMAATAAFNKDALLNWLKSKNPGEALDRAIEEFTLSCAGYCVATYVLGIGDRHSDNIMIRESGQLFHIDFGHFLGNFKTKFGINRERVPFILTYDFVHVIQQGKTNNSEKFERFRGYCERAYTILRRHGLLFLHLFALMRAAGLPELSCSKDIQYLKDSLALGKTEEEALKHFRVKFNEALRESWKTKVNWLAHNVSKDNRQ", "experiment": "Enzyme Assay"}, "PIK3CB (Human)": {"target": "PIK3CB (Human) (UniProt P42338)", "sequence (P42338 whole entry, looked up)": "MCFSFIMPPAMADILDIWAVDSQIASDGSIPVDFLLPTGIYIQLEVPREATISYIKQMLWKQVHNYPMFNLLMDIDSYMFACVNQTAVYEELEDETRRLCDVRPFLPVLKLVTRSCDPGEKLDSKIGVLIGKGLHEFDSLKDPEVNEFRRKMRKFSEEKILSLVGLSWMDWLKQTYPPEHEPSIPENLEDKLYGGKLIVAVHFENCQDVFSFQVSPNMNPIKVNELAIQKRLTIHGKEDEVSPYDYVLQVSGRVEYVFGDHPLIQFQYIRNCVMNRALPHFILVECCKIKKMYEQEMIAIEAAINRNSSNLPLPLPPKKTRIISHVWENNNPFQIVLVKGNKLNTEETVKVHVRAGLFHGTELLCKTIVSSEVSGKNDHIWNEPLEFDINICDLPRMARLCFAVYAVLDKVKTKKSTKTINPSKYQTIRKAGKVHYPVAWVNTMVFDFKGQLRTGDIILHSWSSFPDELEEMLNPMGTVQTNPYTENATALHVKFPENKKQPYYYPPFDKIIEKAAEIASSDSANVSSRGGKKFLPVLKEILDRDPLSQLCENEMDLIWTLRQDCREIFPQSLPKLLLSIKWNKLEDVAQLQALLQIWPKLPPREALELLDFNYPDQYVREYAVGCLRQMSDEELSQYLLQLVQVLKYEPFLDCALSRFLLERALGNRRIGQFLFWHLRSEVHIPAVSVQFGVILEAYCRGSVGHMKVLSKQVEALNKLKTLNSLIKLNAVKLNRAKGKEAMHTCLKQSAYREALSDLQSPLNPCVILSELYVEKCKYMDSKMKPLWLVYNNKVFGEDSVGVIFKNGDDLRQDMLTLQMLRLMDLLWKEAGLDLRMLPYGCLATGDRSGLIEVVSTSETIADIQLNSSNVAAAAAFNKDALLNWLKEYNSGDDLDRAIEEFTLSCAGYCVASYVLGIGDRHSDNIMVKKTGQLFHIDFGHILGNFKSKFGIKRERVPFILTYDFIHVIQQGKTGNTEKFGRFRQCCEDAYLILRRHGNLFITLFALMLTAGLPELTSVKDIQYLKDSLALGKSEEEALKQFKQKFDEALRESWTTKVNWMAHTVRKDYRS", "experiment": "Enzyme Assay"}, "PIK3CG (human) [2]": {"target": "PIK3CG (human) (UniProt P48736)", "experiment": "Cell-Based Assay", "conditions": "u937"}, "PIK3CG (human) [3]": {"target": "PIK3CG (human) (UniProt P48736)", "experiment": "Cell-Based Assay", "conditions": "u937", "remark": "listed apart in the source"}}, "note": "Where “and” joins values, the source holds several entries; their conditions need not be identical. Equal entries are not always repeated.", "data": [{"smiles": "CN[C@H]1CCC[C@@H]1NS(=O)(=O)c1ccc(C)c(-c2cnc(N)c(-c3ccnc(C)c3)n2)c1", "values": [{"measurement": "IC50", "setting": "PIK3CG (human) [1]", "value": 820, "unit": "nM"}, {"measurement": "IC50", "setting": "PIK3CA (human)", "value": 1600, "unit": "nM"}, {"measurement": "IC50", "setting": "PIK3CD (Human)", "value": 4500, "unit": "nM"}, {"measurement": "IC50", "setting": "PIK3CB (Human)", "value": 2700, "unit": "nM"}]}, {"smiles": "Cc1ccc(S(=O)(=O)NC[C@H]2CCC(C)(C)O2)cc1-c1cnc(N)c(-n2cncn2)n1", "values": [{"measurement": "IC50", "setting": "PIK3CG (human) [2]", "value": 411, "unit": "nM"}]}, {"smiles": "Cc1cc(-c2nc(-c3cc(S(=O)(=O)N[C@H]4CC[C@H](N)CC4)ccc3C)cnc2N)ccn1", "values": [{"measurement": "IC50", "setting": "PIK3CG (human) [1]", "value": 51, "unit": "nM"}, {"measurement": "IC50", "setting": "PIK3CA (human)", "value": 180, "unit": "nM"}, {"measurement": "IC50", "setting": "PIK3CD (Human)", "value": 1700, "unit": "nM"}, {"measurement": "IC50", "setting": "PIK3CB (Human)", "value": 5220, "unit": "nM"}, {"measurement": "IC50", "setting": "PIK3CG (human) [2]", "value": 63, "unit": "nM"}]}, {"smiles": "Cc1ccc(S(=O)(=O)NCC(C)(C)O)cc1-c1cnc(N)c(-c2nc(C(C)C)no2)n1", "values": [{"measurement": "IC50", "setting": "PIK3CG (human) [1]", "value": 61, "unit": "nM"}, {"measurement": "IC50", "setting": "PIK3CA (human)", "value": 1200, "unit": "nM"}, {"measurement": "IC50", "setting": "PIK3CD (Human)", "value": 1700, "unit": "nM"}, {"measurement": "IC50", "setting": "PIK3CB (Human)", "value": "> 10000", "unit": "nM"}]}, {"smiles": "Cc1cc(-c2nc(-c3cc(S(=O)(=O)NCC4CCN(C)C4)ccc3C)cnc2N)ccn1", "note": "(configuration not stated)", "values": [{"measurement": "IC50", "setting": "PIK3CG (human) [2]", "value": "> 10000", "unit": "nM"}]}, {"smiles": "Cc1ccc(S(=O)(=O)NCCC(C)(C)O)cc1-c1cnc(N)c(-c2nc(C3CC3)no2)n1", "values": [{"measurement": "IC50", "setting": "PIK3CG (human) [1]", "value": 12, "unit": "nM"}, {"measurement": "IC50", "setting": "PIK3CA (human)", "value": 200, "unit": "nM"}, {"measurement": "IC50", "setting": "PIK3CD (Human)", "value": 292, "unit": "nM"}, {"measurement": "IC50", "setting": "PIK3CB (Human)", "value": "> 9100", "unit": "nM"}, {"measurement": "IC50", "setting": "PIK3CG (human) [2]", "value": 129, "unit": "nM"}]}, {"smiles": "Cc1ccc(S(=O)(=O)NCC(C)(C)CO)cc1-c1cnc(N)c(-c2nc(C3CC3)no2)n1", "values": [{"measurement": "IC50", "setting": "PIK3CG (human) [1]", "value": 81, "unit": "nM"}, {"measurement": "IC50", "setting": "PIK3CA (human)", "value": 1100, "unit": "nM"}, {"measurement": "IC50", "setting": "PIK3CD (Human)", "value": 330, "unit": "nM"}, {"measurement": "IC50", "setting": "PIK3CB (Human)", "value": "> 9100", "unit": "nM"}]}, {"smiles": "Cc1ccc(S(=O)(=O)NCC[C@@H](O)C(F)(F)F)cc1-c1cnc(N)c(-c2cn(C)nc2C)n1.Cc1ccc(S(=O)(=O)NCC[C@H](O)C(F)(F)F)cc1-c1cnc(N)c(-c2cn(C)nc2C)n1", "values": [{"measurement": "IC50", "setting": "PIK3CG (human) [3]", "value": 337, "unit": "nM"}, {"measurement": "IC50", "setting": "PIK3CG (human) [2]", "value": 60, "unit": "nM"}]}, {"smiles": "Cc1ncc(-c2nc(-c3cc(S(=O)(=O)NCC4COCCN4C)ccc3C)cnc2N)s1", "note": "(configuration not stated)", "values": [{"measurement": "IC50", "setting": "PIK3CG (human) [2]", "value": 145, "unit": "nM"}]}, {"smiles": "Cc1ccc(S(=O)(=O)N[C@H]2CC[C@@](C)(O)CC2)cc1-c1cnc(N)c(-n2cncn2)n1", "values": [{"measurement": "IC50", "setting": "PIK3CG (human) [2]", "value": "103 nM and 135 nM"}]}, {"smiles": "Cc1ncc(-c2nc(-c3cc(S(=O)(=O)NCC(F)(F)F)ccc3C)cnc2N)s1", "values": [{"measurement": "IC50", "setting": "PIK3CG (human) [1]", "value": 5, "unit": "nM"}, {"measurement": "IC50", "setting": "PIK3CA (human)", "value": 40, "unit": "nM"}, {"measurement": "IC50", "setting": "PIK3CD (Human)", "value": 40, "unit": "nM"}, {"measurement": "IC50", "setting": "PIK3CB (Human)", "value": 990, "unit": "nM"}]}, {"smiles": "CN[C@@H]1CCC[C@H]1NS(=O)(=O)c1ccc(C)c(-c2cnc(N)c(-c3ccnc(C)c3)n2)c1", "values": [{"measurement": "IC50", "setting": "PIK3CG (human) [1]", "value": 110, "unit": "nM"}, {"measurement": "IC50", "setting": "PIK3CA (human)", "value": 730, "unit": "nM"}, {"measurement": "IC50", "setting": "PIK3CD (Human)", "value": 910, "unit": "nM"}, {"measurement": "IC50", "setting": "PIK3CB (Human)", "value": 7500, "unit": "nM"}]}, {"smiles": "Cc1ccc(S(=O)(=O)N[C@H]2CC3(C[C@@H](O)C3)C2)cc1-c1cnc(N)c(-c2cn(C)nc2C)n1", "note": "(some centres not stated)", "values": [{"measurement": "IC50", "setting": "PIK3CG (human) [2]", "value": 40, "unit": "nM"}]}, {"smiles": "Cc1ccc(S(=O)(=O)NC[C@@H]2COCCN2C)cc1-c1cnc(N)c(-c2cn(C)nc2C)n1.Cc1ccc(S(=O)(=O)NC[C@H]2COCCN2C)cc1-c1cnc(N)c(-c2cn(C)nc2C)n1", "values": [{"measurement": "IC50", "setting": "PIK3CG (human) [3]", "value": 241, "unit": "nM"}]}, {"smiles": "Cc1ccc(S(=O)(=O)NCC2(O)CCOCC2)cc1-c1cnc(N)c(-n2cncn2)n1", "values": [{"measurement": "IC50", "setting": "PIK3CG (human) [1]", "value": 94, "unit": "nM"}, {"measurement": "IC50", "setting": "PIK3CA (human)", "value": 660, "unit": "nM"}, {"measurement": "IC50", "setting": "PIK3CD (Human)", "value": 1500, "unit": "nM"}, {"measurement": "IC50", "setting": "PIK3CB (Human)", "value": 1460, "unit": "nM"}, {"measurement": "IC50", "setting": "PIK3CG (human) [2]", "value": 387, "unit": "nM"}]}, {"smiles": "Cc1ccc(S(=O)(=O)NC[C@H]2CNC[C@@H]2O)cc1-c1cnc(N)c(-n2cncn2)n1", "values": [{"measurement": "IC50", "setting": "PIK3CG (human) [1]", "value": 140, "unit": "nM"}, {"measurement": "IC50", "setting": "PIK3CA (human)", "value": 960, "unit": "nM"}, {"measurement": "IC50", "setting": "PIK3CD (Human)", "value": 2400, "unit": "nM"}, {"measurement": "IC50", "setting": "PIK3CB (Human)", "value": 730, "unit": "nM"}]}]}
